# Results from patent US10155742B2, “Halofuginol derivatives and their use in cosmetic and pharmaceutical compositions” (President and Fellows of Harvard College, priority 2012, dated 2018).
# Key:
# [1] = molecular target: T1, prolyl tRNA synthetase domain of human EPRS (ProRS) (Homo sapiens, UniProt P07814); conditions: 3H Pro incorporation into tRNA
# T1 sequence (P07814 998-1512 limits assumed): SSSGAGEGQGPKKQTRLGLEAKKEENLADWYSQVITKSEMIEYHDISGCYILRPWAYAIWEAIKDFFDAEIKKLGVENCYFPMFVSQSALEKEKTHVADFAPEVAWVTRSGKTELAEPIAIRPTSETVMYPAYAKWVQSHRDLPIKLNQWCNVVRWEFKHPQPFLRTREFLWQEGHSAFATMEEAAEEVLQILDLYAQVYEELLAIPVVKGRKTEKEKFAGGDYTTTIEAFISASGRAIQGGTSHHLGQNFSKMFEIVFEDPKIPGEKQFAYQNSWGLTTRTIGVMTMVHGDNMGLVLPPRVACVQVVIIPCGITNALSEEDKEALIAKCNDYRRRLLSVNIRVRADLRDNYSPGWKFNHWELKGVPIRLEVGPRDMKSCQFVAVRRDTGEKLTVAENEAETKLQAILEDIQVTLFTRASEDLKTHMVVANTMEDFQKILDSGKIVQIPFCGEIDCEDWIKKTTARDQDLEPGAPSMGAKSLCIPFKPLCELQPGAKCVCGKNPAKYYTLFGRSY
# Method: Activity of the Prolyl tRNA synthetase domain of EPRS (ProRS) was measured as ^3H Pro incorporation into the charged tRNA pool. […] Purified enzyme was visualized as a single band by Laemmli gel electrophoresis/Coomassie staining.
# Purified enzyme was visualized as a single band by Laemmli gel electrophoresis/Coomassie staining. […] In preliminary experiments, the assay was established to be linear over the time (6 min) and conditions used (30 degrees, 2 mM ATP, 1 μg/μl total tRNA purified from rabbit liver).
# For the rapid, quantitative isolation of aminoacylated tRNA^pro from synthetase reaction mixtures, reactions were stopped with 100 μl of ice cold 20 mM MOPS pH6.2, 200 mM NaCl, 10 mM EDTA, 30% Glycerol and placed on ice. Samples were added to 15 μl of packed Mono Q HP beads (GE Healthcare) equilibrated in the same buffer. Samples were incubated with beads on ice for 10 min, beads were pelleted by 5 sec centrifugation in a tabletop microfuge and washed 3× 1 ml of wash buffer (20 mM MOPS pH6.2, 50 mM NaCl), and recovered pellets counted in a liquid scintillation counter. Background binding of ^3H Pro to beads (using reaction mix with either no enzyme added or no tRNA added) was negligible (20-40 cpm).
# [2] = system: Th17-driven multiple sclerosis model; conditions: Sundrud et al. 2009; cited from earlier work
# [3] = system: mouse embryo fibroblasts (MEFs); experiment: HF and proline effects on mouse embryo fibroblasts (gene expression, ECM protein production, protein synthesis); format: cell-based
# Method: A) Primary murine CD4^+ CD25^− T cells were activated through the T-cell receptor in Th17 polarizing conditions (Sundrud et al. Science 324:1334-8 (2009)) in the presence of either 10 nM MAZ1310 or HF and the following amino acid supplements: 10× concentration of essential (EAA) or non-essential (NEAA) amino acids mixtures (Biowhittaker or Invitrogen, respectively), or 10× concentrations (1 mM) of indicated individual amino acids. Data are presented as mean percentage of Th17 (IL-17+ IFNg−) cells +/−SD from triplicate wells. B) Th17 differentiation was assayed as described above, in the absence or presence of HF or borrelidin, with or without 1 mM threonine or proline supplementation. C) MEFs were treated with or without HF (50 nM) and/or proline (2 mM) for 4 hours (CHOP, S100A4) or 24 hours (ColIA1, Col1A2). mRNA expression was normalized to expression of TBP and is shown relative to untreated control. […] Confidence intervals (p-value) for the effect of HF alone versus HF+Pro were determined using a two-tailed Student's t test. Data are representative of two separate experiments. D) Cells were pre-incubated for 24 hours with HF and proline as indicated, and secretion of Type I procollagen was measured after 24 hours in conditioned medium of cells plated by Western blot and quantitated using Image J software (top panel). Total protein synthesis was measured as TCA-precipitable ^35S in a scintillation counter (bottom panel).
# MEFs were incubated for 4 hours in HF with or without 2 mM proline, to measure new collagen production in conditioned medium. Cells were washed into fresh DMEM/0.2% FBS, and proline or HF re-added, and either conditioned medium (for Type I procollagen) or total cell lysate (for fibronectin, c-actin) and were harvested after 24 hours. Triplicate plates of cells for each condition were treated, harvested, and blotted in parallel. Protein levels were assayed by Western blot, detected using chemiluminescence, and film exposure was quantitated using Image J software.
# For assays of HF and proline effects on fibroblasts, mouse embryo fibroblasts were grown in 10% FCS/DMEM. For studies of TGFβ signaling, ^35S methionine incorporation into total protein, and collagen production, cells were shifted into 0.2% FCS/DMEM 24 hours before the addition of HF or proline. For examination of protein expression and phosphorylation, cells were lysed in RIPA with 5 mM EDTA, 1× PhosStop (Roche), and 1× Complete protease inhibitor mix (Roche), and assayed by Western blot as described above. For analysis of gene expression, cells were lysed in Trizol (Invitrogen) and gene expression quantitated by quantitative RT-PCR using the Roche UPR Light-Cycler system.
# [4] = system: CD4+ T cell, CD8+ T cell, and B220+ B cell activation; conditions: from PCT/US08/09774; cited from earlier work
# [5] = de Jonge et al. 2006; cited from earlier work
# [6] = system: primary human prostate stromal (hPrSc) cells, col1a1; experiment: Type I collagen (col1a1) mRNA in primary human prostate stromal cells; format: cell-based; conditions: treated twice for 48 hours, FIG. 27
# Method: Primary human prostate stromal (hPrSc) cells were left in low-serum media (0.2%) for 24 hours, and treated consecutively twice for 48 hours, halofuginone (HF) or halofuginol (HFol) at the concentrations indicated. Relative mRNA levels of the myofibroblastic markeralpha 1 collagen type 1 (col1a1) was measured by quantitative real-time PCR using glyceraldehyde-3-phosphate dehydrogenase (GAPDH) as internal control.
smiles,measurement,setting,value
"O=C(C[C@H]1NCCC[C@@H]1O)Cn1cnc2cc(Br)c(Cl)cc2c1=O (racemic) [HF, 7-bromo-6-chloro-3-[3-(3-hydroxy-2-piperidinyl)-2-oxopropyl]-4(3H)-quinazolinone]",inhibition of ProRS activity,[1],inhibits
same,development of disease,[2],inhibits
same,production of secreted Type I procollagen and fibronectin,"[3]; 24 hours treatment, FIG. 6D",dramatically inhibited
same,"mRNA levels of Col1A1, Col1A2, and S100A4","[3]; MEFs, HF 50 nM, 4 or 24 hours, FIG. 6C",inhibits
same,expression of mRNA encoding CHOP,"[3]; MEFs, HF 50 nM, 4 hours, FIG. 6C",stimulated
same,35S-methionine incorporation into total protein,"[3]; same doses as ECM protein inhibition, FIG. 6D",did not significantly change
same,"concentration that generally inhibits CD4+ T cell, CD8+ T cell, and B220+ B cell activation",[4],20 to 40 nM
same,"toxicity in humans (nausea, vomiting, fatigue, possibly bleeding complications)",[5],some toxicity
same,Type 1 collagen expression in fibroblasts in culture,[6],inhibit
